Results from ChEMBL document CHEMBL3991601, “The target landscape of clinical kinase drugs” (Science, 2017).
Activity calls are given as the source filed them. Cut-off read from the data, not from the text of the source, for most assays here: actives have a measured Kd and inactives only a lower limit.

Legend:
[1] = biological target: Tyrosine-protein kinase HCK (Homo sapiens, UniProt P08631)
[2] = biological target: Ribosomal protein S6 kinase alpha-1 (Homo sapiens, UniProt Q15418)
[3] = biological target: T1, Exosome RNA helicase MTR4 (Homo sapiens, UniProt P42285)
T1 sequence (P42285 whole entry): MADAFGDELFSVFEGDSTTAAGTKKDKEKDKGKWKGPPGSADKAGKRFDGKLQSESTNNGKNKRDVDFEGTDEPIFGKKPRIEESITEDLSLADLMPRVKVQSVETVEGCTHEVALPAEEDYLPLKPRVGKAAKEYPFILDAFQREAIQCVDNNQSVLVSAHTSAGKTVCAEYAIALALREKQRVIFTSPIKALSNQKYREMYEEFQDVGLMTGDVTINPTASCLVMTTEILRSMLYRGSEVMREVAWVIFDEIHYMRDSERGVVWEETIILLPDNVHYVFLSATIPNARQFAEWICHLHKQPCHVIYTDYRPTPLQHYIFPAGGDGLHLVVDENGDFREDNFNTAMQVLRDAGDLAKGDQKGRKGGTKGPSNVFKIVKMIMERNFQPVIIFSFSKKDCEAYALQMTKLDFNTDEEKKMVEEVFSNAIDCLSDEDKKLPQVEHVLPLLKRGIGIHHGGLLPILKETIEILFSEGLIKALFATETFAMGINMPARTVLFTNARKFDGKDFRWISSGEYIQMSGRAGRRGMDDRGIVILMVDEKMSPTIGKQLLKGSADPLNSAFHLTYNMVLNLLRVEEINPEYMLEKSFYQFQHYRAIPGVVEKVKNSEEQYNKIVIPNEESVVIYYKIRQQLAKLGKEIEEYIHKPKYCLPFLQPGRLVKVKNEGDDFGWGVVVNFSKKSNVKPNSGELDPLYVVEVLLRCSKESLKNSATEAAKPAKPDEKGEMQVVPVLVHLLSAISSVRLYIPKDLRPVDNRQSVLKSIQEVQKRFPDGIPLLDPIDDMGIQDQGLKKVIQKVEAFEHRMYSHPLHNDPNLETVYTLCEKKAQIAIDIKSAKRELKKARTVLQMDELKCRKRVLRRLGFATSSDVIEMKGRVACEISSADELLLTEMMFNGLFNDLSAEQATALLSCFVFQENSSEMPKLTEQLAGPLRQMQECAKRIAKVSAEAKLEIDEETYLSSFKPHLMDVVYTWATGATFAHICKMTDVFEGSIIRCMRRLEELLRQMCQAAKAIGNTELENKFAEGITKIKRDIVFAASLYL

[4] = biological target: Mitogen-activated protein kinase 3 (Homo sapiens, UniProt P27361)
[5] = biological target: T2, Discoidin domain-containing receptor 2 (Homo sapiens, UniProt Q16832)
T2 sequence (Q16832 whole entry): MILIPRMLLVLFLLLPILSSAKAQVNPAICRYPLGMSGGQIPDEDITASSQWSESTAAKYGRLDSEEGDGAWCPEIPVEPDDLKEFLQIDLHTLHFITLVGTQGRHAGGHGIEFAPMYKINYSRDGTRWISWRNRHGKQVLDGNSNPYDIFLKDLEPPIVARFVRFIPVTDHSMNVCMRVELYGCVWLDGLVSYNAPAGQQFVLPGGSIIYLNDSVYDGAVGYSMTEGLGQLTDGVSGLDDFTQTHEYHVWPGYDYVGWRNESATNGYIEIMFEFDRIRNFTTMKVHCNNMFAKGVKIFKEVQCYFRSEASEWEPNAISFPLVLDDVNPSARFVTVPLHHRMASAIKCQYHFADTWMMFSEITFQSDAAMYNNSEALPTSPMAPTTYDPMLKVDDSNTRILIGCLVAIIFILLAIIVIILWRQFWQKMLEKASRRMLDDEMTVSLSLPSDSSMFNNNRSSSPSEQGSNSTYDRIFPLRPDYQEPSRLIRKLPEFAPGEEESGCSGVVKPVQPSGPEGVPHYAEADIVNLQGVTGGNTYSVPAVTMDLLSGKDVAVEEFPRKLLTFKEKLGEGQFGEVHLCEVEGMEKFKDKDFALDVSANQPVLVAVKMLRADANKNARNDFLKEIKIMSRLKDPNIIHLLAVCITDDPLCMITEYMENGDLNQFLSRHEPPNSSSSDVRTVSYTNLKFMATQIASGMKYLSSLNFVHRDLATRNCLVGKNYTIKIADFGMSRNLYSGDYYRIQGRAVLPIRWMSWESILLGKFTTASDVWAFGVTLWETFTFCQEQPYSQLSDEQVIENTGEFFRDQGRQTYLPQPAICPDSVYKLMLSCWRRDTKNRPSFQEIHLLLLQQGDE

[6] = biological target: Mitogen-activated protein kinase 8 (Homo sapiens, UniProt P45983)
Note: in the data inactive means no Kd found up to 30 µM.

Sequence of Ribosomal protein S6 kinase alpha-1 (Q15418 whole entry): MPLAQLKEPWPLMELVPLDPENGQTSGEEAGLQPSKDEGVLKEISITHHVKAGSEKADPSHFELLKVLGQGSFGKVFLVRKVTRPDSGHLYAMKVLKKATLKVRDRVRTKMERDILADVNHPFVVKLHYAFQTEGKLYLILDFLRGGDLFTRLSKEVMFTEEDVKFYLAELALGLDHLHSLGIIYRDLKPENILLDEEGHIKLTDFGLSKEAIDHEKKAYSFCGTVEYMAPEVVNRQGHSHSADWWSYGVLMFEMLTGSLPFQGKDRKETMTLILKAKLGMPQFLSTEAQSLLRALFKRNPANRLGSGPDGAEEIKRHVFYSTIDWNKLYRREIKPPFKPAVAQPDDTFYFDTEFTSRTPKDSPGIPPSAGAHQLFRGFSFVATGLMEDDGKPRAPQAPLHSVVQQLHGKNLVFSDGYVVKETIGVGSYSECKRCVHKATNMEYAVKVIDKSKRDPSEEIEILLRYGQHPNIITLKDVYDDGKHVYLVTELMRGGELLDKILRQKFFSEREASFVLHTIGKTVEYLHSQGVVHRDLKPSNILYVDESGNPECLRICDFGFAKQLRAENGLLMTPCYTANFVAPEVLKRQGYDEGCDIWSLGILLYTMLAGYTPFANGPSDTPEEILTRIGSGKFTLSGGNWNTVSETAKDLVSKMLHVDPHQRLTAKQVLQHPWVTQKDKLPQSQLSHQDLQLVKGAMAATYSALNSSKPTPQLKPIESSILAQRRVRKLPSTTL
Sequence of Mitogen-activated protein kinase 3 (P27361 whole entry, the tested form may be a part): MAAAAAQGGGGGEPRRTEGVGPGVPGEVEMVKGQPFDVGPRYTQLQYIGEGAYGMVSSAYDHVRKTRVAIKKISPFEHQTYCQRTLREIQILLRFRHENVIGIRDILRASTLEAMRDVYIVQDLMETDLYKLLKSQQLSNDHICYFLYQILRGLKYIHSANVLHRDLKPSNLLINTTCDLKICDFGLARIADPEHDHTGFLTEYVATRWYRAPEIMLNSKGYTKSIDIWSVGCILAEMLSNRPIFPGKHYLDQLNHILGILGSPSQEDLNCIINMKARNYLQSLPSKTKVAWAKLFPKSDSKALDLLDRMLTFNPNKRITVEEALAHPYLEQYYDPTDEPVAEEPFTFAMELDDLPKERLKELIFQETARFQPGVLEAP
Sequence of Tyrosine-protein kinase HCK (P08631 whole entry): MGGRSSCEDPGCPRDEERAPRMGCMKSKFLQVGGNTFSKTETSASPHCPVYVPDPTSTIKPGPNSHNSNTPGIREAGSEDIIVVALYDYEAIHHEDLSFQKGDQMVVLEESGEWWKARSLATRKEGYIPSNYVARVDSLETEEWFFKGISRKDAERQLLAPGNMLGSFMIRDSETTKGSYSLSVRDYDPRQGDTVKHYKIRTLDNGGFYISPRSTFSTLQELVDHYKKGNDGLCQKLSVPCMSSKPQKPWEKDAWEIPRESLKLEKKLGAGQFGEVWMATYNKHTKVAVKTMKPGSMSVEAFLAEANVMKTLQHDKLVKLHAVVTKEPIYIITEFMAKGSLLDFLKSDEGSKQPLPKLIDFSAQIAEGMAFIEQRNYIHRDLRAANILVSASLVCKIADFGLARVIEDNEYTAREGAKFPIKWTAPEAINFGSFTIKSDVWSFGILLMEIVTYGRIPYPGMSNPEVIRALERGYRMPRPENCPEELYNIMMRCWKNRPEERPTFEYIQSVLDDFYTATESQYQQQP
Sequence of Mitogen-activated protein kinase 8 (P45983 whole entry): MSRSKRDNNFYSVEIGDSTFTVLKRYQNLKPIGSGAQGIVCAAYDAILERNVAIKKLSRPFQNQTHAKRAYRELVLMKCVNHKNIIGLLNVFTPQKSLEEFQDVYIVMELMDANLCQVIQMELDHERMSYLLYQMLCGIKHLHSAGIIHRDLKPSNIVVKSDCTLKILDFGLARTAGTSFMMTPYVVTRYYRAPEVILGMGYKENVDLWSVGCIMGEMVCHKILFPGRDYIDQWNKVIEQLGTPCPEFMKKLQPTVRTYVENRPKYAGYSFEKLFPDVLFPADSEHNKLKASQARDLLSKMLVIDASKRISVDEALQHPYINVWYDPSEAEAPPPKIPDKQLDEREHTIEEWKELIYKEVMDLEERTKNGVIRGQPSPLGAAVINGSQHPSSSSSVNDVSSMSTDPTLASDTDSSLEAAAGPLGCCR

SMILES	Kd [1]	Kd [2]	Kd [3]	Kd [4]	Kd [5]	Kd [6]
CO[C@H]1C[C@@H]2CC[C@@H](C)[C@@](O)(O2)C(=O)C(=O)N2CCCC[C@H]2C(=O)O[C@H]([C@H](C)C[C@@H]2CC[C@@H](OP(C)(C)=O)[C@H](OC)C2)CC(=O)[C@H](C)/C=C(\C)[C@@H](O)[C@@H](OC)C(=O)[C@H](C)C[C@H](C)/C=C/C=C/C=C/1C [RIDAFOROLIMUS]	> 30 µM (inactive)	> 30 µM (inactive)	> 30 µM (inactive)	> 30 µM (inactive)	> 30 µM (inactive)	> 30 µM (inactive)
N#CC1(c2ccc(NC(=O)c3cccnc3NCc3ccncc3)cc2)CCCC1 [RIVOCERANIB]	> 30 µM (inactive)	> 30 µM (inactive)	> 30 µM (inactive)	> 30 µM (inactive)	> 30 µM (inactive)	> 30 µM (inactive)
O=c1[nH]ccc2cc(OC3CCNCC3)ccc12 [SAR-407899 FREE BASE]	> 30 µM (inactive)	> 30 µM (inactive)	> 30 µM (inactive)	> 30 µM (inactive)	> 30 µM (inactive)	> 30 µM (inactive)
Cn1cc(-c2cnn3c(N)c(Br)c([C@@H]4CCCNC4)nc23)cn1 [SCH-900776]	> 30 µM (inactive)	> 30 µM (inactive)	> 30 µM (inactive)	> 30 µM (inactive)	> 30 µM (inactive)	> 30 µM (inactive)
CO[C@H]1C[C@@H]2CC[C@@H](C)[C@@](O)(O2)C(=O)C(=O)N2CCCC[C@H]2C(=O)O[C@H]([C@H](C)C[C@@H]2CC[C@@H](O)[C@H](OC)C2)CC(=O)[C@H](C)/C=C(\C)[C@@H](O)[C@@H](OC)C(=O)[C@H](C)C[C@H](C)/C=C/C=C/C=C/1C [SIROLIMUS]	> 30 µM (inactive)	> 30 µM (inactive)	> 30 µM (inactive)	> 30 µM (inactive)	> 30 µM (inactive)	> 30 µM (inactive)
CO[C@H]1C[C@@H]2CC[C@@H](C)[C@@](O)(O2)C(=O)C(=O)N2CCCC[C@H]2C(=O)O[C@H]([C@H](C)C[C@@H]2CC[C@@H](OC(=O)C(C)(CO)CO)[C@H](OC)C2)CC(=O)[C@H](C)/C=C(\C)[C@@H](O)[C@@H](OC)C(=O)[C@H](C)C[C@H](C)/C=C/C=C/C=C/1C [TEMSIROLIMUS]	> 30 µM (inactive)	> 30 µM (inactive)	> 30 µM (inactive)	> 30 µM (inactive)	> 30 µM (inactive)	> 30 µM (inactive)
COc1cc2c(Nc3ccc(Cl)c(Cl)c3F)ncnc2cc1OC[C@@H]1C[C@@H]2CN(C)C[C@@H]2C1 [TESEVATINIB]	1.16 µM (active)	> 30 µM (inactive)	> 30 µM (inactive)	> 30 µM (inactive)	1.52 µM (active)	> 30 µM (inactive)
O=C(Cc1ccc(-c2ccc(OCCN3CCOCC3)cc2)cn1)NCc1ccccc1 [TIRBANIBULIN]	> 30 µM (inactive)	> 30 µM (inactive)	> 30 µM (inactive)	> 30 µM (inactive)	> 30 µM (inactive)	> 30 µM (inactive)
O=C1NC(=O)[C@@H](c2cn3c4c(cccc24)CCC3)[C@@H]1c1c[nH]c2ccccc12 [TIVANTINIB]	> 30 µM (inactive)	> 30 µM (inactive)	> 30 µM (inactive)	> 30 µM (inactive)	> 30 µM (inactive)	> 30 µM (inactive)
C[C@@H](NC(=O)c1ncnc(N)c1Cl)c1ncc(C(=O)Nc2cc(C(F)(F)F)c(Cl)cn2)s1 [TOVORAFENIB]	> 30 µM (inactive)	> 30 µM (inactive)	> 30 µM (inactive)	> 30 µM (inactive)	0.227 µM (active)	> 30 µM (inactive)
Cc1cc(Nc2ncnc3ccc(NC4=NC(C)(C)CO4)cc23)ccc1Oc1ccn2ncnc2c1 [TUCATINIB]	> 30 µM (inactive)	> 30 µM (inactive)	> 30 µM (inactive)	> 30 µM (inactive)	> 30 µM (inactive)	> 30 µM (inactive)
Cn1ncc(Cl)c1-c1cc(C(=O)N[C@H](CN)Cc2ccc(F)c(F)c2)oc1Cl [UPROSERTIB]	> 30 µM (inactive)	> 30 µM (inactive)	> 30 µM (inactive)	> 30 µM (inactive)	> 30 µM (inactive)	> 30 µM (inactive)
CC(C)c1cc(CNc2nc(Nc3cc(C4CC4)[nH]n3)cc(N3CCN(C)CC3)n2)on1 [XL-228]	6.39 µM (active)	> 30 µM (inactive)	> 30 µM (inactive)	> 30 µM (inactive)	4.96 µM (active)	> 30 µM (inactive)
C[C@@H](N)c1ccc(C(=O)Nc2ccnc3[nH]ccc23)cc1 [Y-39983]	> 30 µM (inactive)	> 30 µM (inactive)	> 30 µM (inactive)	> 30 µM (inactive)	> 30 µM (inactive)	> 30 µM (inactive)
CN1C/C=C/CCOc2cccc(c2)-c2ccnc(n2)Nc2cccc(c2)C1 [ZOTIRACICLIB]	> 30 µM (inactive)	> 30 µM (inactive)	> 30 µM (inactive)	> 30 µM (inactive)	> 30 µM (inactive)	1.46 µM (active)
